Measurements as given in patent publication EP0665834B1, “QUINOLONE AND ACRIDINONE DERIVATIVES FOR THE TREATMENT OF URINARY INCONTINENCE” (AstraZeneca AB, priority 1992, dated 1994).
Each block holds one molecule with its values, some of them ahead of it.

Tests used:
[1] = system: guinea pig detrusor strips; assay: second in vitro test: guinea pig detrusor strips contracted with 80 mM KCl; format: cell-based; conditions: for potency in the second test (80 mM KCl) compared with the first test (15 mM KCl): guinea pig detrusor strips
Description: This second in vitro test is similar to the one described above with regard to tissue preparation and data acquisition. However, the following exceptions are noted. In this second test, the contraction of the detrusor strips during priming and after the equilibration period is achieved with 80 mM instead of 15 mM KCl (total concentration in the bath).
Typical calcium channel blockers like nifedipine, nimodipine, isradipine, and verapamil are able to relax and reduce the myogenic activity of guinea pig detrusor strips in both tests by virtue of their blocking action on calcium channels.

[2] = system: guinea pig detrusor strips; assay: in vitro relaxation of guinea pig bladder detrusor strips contracted with 15 mM KCl (first test); format: cell-based, albino Hartley guinea pigs; conditions: for IC50: Cavia porcellus, 15 mM KCl; for potency: in vitro, in words only
Excerpt: The actions of compounds of formula I as smooth muscle relaxants useful as therapeutic agents for the treatment of urinary incontinence through their action to open potassium channels and hyperpolarize the membrane potential in the bladder detrusor smooth muscle can be shown using suitably designed in vitro tests, such as the one described following. […] "IC50" is a well understood term and means the concentration of test compound which causes a 50% decrease in the in vitro contraction of the bladder tissue described in the following test.
Hale albino Hartley guinea pigs (450-500g) are sacrificed by carbon dioxide induced asphyxiation and quickly exsanguinated. The lower abdominal cavity is opened and the urinary bladder isolated. The bladder is cleaned of surrounding connective and adipose tissue, and the portion above the ureteral orifices is removed and washed in Krebs-Henseleit buffer solution of the following composition (in mH): NaCl 118.0, KCl 4.7, […] 1.2, KH2PO4 1.2, CaCl2 2.5, NaHCO3 25.0 and d-glucose 11.1. The solution is warmed to 37°C and gassed with 95% O2 and 5% CO2. With vigorous bubbling, the solution should have a pH value close to 7.4.
The dome of the washed bladder is cut off and discarded; the remaining bladder is placed on a gauze in a Petri dish containing the buffer solution. A mid-ventral longitudinal cut is made with scissors to open the bladder. The strips cut from the dome and the base edge are discarded. The remaining detrusor mid-section is cut into two horizontal strips with an approximate width of 2.0 mm. These two strips are further bisected at the mid-dorsal section, creating four strip of similar dimensions. Each strip thus contains both dorsal and ventral portions of the bladder.
The two ends of each individual strip are tied to a glass support rod and a force-displacement transducer (Grass model FR03), respectively, with 4-0 black braided silk suture.
The transducers are connected to a polygraph (Grass model 7E), which is calibrated at 5 mV/cm and the calibration checked for linearity with weights of 5 and 0.5 grams. The analog electrical output signals from the polygraph are digitized by a Modular Instrument Hicro 5000 signal processing system using Biowindow Data Acquisition Software, which is run under the Hicrosoft OS/2 operating system with an IBM-compatible PC.
The detrusor strips on the glass rod are secured in 20 ml tissue baths and allowed to equilibrate under a preload tension of 2 grams. […]
When the tissue relaxes to a steady state after the final washing, 15 mH KCl is again applied. […] The effect of the compound at each dose is expressed as % of the maximum inhibitory response, which is further normalized with respect to the corresponding effect of the compound vehicle control. […]

urinary incontinence = conditions: preliminary clinical trial; Nurse et al, British Journal of Urology (1991); cited from earlier work
[3] = chemical stability (no method given); format: physicochemical; conditions: in words; compared with corresponding compounds wherein R^2 is methyl
bladder = assay: in vivo oral test in catheterized rats: bladder contraction interval, blood pressure, heart rate; set-up: species or system Male Wistar rats; conditions: dosed orally at 3 mg/kg body weight
Description: The compound described in Example 1 is active and selective in this test when dosed orally at 3 mg/kg body weight.
Male Wistar rats (400 - 500 g) were anesthetized with 50 mg/kg Nembutal, i.p. For each rat, the abdominal region and the front and back of the neck were shaved and povidone-iodine was applied to the skin. For carotid catheterization, the left carotid artery was exposed via a small ventral cervical incision. The exposed area was flushed with a 2% lidocaine HCl solution to relax the vessel. The catheter, filled with 0.9% saline, was introduced approximately 2.4 cm into the artery so that its tip resided in the aortic arch. The distal end of the catheter was exteriorized at the nape of the neck, filled with heparin (1000 units/ml) and heat sealed. […]
The rats were weighed, orally sham-dosed (dosing needle introduced, but no fluid expelled), and transvesical saline infusion (.18 ml/min) was begun and continued throughout the experiment. Variations in blood pressure, heart rate, intravesical pressure and urine output were recorded on either a Grass Polygraph or a Gould TA4000 recording system. […] At this point, a basal level of each experimental parameter was recorded and the rats were administered by oral gavage the appropriate dose of compound (in a 75% PEG 400 - saline vehicle) in concentrations such that the volume was 1 ml/kg body weight. […]

cardiovascular system = conditions: Vitolinya et al, 1981; cited from earlier work
intestinal smooth muscle = conditions: Vitolinya et al, 1981; cited from earlier work

Structure (SMILES): COC(=O)C1=C(C)NC(C)=C(C(=O)OC(C)C)C1c1cccc2nonc12 (centres unmarked) [isradipine]
potency in the second test (80 mM KCl) compared with the first test (15 mM KCl) [1]: more potent in the second test

IC50 ([2]; relaxant activity in the first test): 0.6 to 0.9 µM
Structure (SMILES): CC1(C)Oc2ccc(C#N)cc2C(N2CCCC2=O)C1O (centres unmarked) [cromakalim]
relaxant activity ([1]; 80 mM KCl, at concentrations as high as 30 µM): insignificant relaxant activity
efficacy in treatment of urinary incontinence (urinary incontinence): effective

chemical stability [3]: superior
Structure (SMILES): O=C1CCCC2=C1C(c1cccc([N+](=O)[O-])c1)C=C(C(F)(F)F)N2 (centres unmarked) [Example 15, 2-Trifluoromethyl-4-(3-nitrophenyl)-4,6,7,8-tetrahydro-5(1H)quinolone]
potency [2]: surprisingly good potency in vitro

IC50 ([2]; concentration causing 50% decrease in in vitro contraction of bladder tissue): 8.11 µM
Structure (SMILES): CC1=CC(c2ccc(C(F)(F)F)cc2)C2=C(CCCC2=O)N1 (centres unmarked) [Example 9, 2-Methyl-4-(4-trifluoromethylphenyl)-4,6,7,8-tetrahydro-5(1H)-quinolone]

Structure (SMILES): CC1=CC(c2cccc([N+](=O)[O-])c2)C2=C(CCCC2=O)N1 (centres unmarked) [Example 1, 2-Methyl-4-(3-nitrophenyl)-4,6,7,8-tetrahydro-5(1H)-quinolone]
activity (bladder): active

Structure (SMILES): CC1=C(C#N)C(c2ccccc2)C2=C(CC(C)(C)CC2=O)N1 (centres unmarked) [3-Cyano-4-phenyl-2,7,7-trimethyl-4,6,7,8-tetrahydro-5(1H)-quinolone]
hypotensive properties (cardiovascular system): hypotensive properties
blocking of spasmogenic effect of acetylcholine and barium chloride (intestinal smooth muscle): capable of blocking the spasmogenic effect

Structure (SMILES): COc1ccc(Cc2nccc3cc(OC)c(OC)cc23)cc1OC [papaverine]
effect on sustained tension after high KCl stimulation ([1]; 80 mM KCl, 300 µM): totally abolished

chemical stability [3]: superior
Structure (SMILES): N#Cc1cccc(C2C=C(C(F)(F)F)NC3=C2C(=O)CCC3)c1 (centres unmarked) [Example 39, 2-Trifluoromethyl-4-(3-cyanophenyl)-4,6,7,8-tetrahydro-5(1H)-quinolone]
potency [2]: surprisingly good potency in vitro

Structure (SMILES): COc1ccc(CCN(C)CCCC(C#N)(c2ccc(OC)c(OC)c2)C(C)C)cc1OC (centres unmarked) [verapamil]
potency in the second test (80 mM KCl) compared with the first test (15 mM KCl) [1]: more potent in the second test
